Results from US10730826B2, “Ketone inhibitors of lysine gingipain” (CORTEXYME, INC., priority 2016, dated 2020).

Assays:
arginine gingipain, Rgp = test: Inhibition of arginine gingipain; assay type: biochemical, Porphyromonas gingivalis; details: 100 nM
Cathepsin B = Cathepsin B (Homo sapiens (Human), UniProt P07858); test: Cathepsin B inhibition assay; assay type: biochemical; details: Table 4; read-out: IC50 (nM) CatB
Description: (§1) The capacities of compounds of the present invention to inhibit the activity of cathepsins B, H, K, L, and S were measured in similar assays. Boc-Leu-Arg-Arg-AMC (20 μM) in sodium acetate buffer (50 mM, pH 5.5) containing DTT (1 mM) and EDTA (2 mM) was used for the Cathepsin B assay. L-Arg-AMC (20 μM) in sodium acetate buffer (50 mM, pH 5.5) containing DTT (1 mM) and EDTA (2 mM) was used for the Cathepsin H assay. Z-Phe-Arg-AMC (10 μM) in HEPES buffer (50 mM, pH 7.4) containing DTT (2.5 mM) and EDTA (1 mM) was used for the Cathepsin K assay. Z-Phe-Arg-AMC (20 μM) in sodium acetate buffer (50 mM, pH 5.5) containing DTT (1 mM) and EDTA (2 mM) was used for the Cathepsin L assay. Z-Leu-Arg-AMC (10 μM) in sodium acetate buffer (25 mM, pH 4.5) containing DTT (2.5 mM) and NaCl (50 mM) was used for the Cathepsin S assay. The capacities of the compounds to inhibit the activity of cathepsins F, V, and Z were also measured.
(§2) Further assays to measure the inhibitory activity of compounds of the present invention against Kgp and cathepsins B, H, K, L, and S were conducted as described in Example 66. The capacities of the compounds to inhibit the activity of cathepsins F, V, and Z were also measured.

Cathepsin S = Cathepsin S (Homo sapiens (Human), UniProt P25774); test: Cathepsin S inhibition assay; assay type: biochemical; details: Table 4; read-out: IC50 (nM) CatS
Chain of Cathepsin S (P25774 115-331, species assumed): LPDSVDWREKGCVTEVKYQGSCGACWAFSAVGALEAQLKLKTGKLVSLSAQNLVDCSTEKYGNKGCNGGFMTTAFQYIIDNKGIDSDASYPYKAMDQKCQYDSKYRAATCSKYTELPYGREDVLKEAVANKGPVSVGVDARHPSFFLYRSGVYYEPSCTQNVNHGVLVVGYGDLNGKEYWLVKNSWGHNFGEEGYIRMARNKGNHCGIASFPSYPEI
Description: as §1, §2

cathepsin V = cathepsin V (Homo sapiens (Human), UniProt O60911); test: Cathepsin V inhibition assay; assay type: biochemical; details: Table 4; read-out: IC50 (nM) CatV
Chain of cathepsin V (O60911 114-334): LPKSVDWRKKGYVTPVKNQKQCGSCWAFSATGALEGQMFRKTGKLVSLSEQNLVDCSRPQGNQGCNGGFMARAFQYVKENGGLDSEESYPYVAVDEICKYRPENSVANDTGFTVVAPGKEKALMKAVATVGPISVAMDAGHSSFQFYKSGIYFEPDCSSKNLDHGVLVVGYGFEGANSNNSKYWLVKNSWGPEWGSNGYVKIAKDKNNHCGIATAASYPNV
Description: as §1, §2

P. gingivalis W83 = test: Mouse periodontitis model, alveolar bone loss; assay type: in vivo, BALB/C mice; details: week 5-10
Description: At the beginning of the study, eight week old BALB/C female mice received antibiotic in drinking water (sulfamethoxazolum 0.87 mg/mL, trimethoprimum 0.17 mg/mL) for 10 days to reduce microbiome protection from experiment infection. Experimental periodontitis was induced by ligature placement followed by multiple exposures to P. gingivalis. During the ligature procedure mice were anesthetized with an intraperitoneal injection of ketamine (200 mg/kg) and xylazine (10 mg/kg), and eyes were lubricated with ointment (Puralube Vet; Pharmaderm, Melville, N.Y.). Next, a 5-0 silk ligature (Roboz Surgical Instrument Co.) was tied around the upper maxillary left and right second molar. Sutures were applied and tied gently to prevent damage to the periodontal tissue.
Mice (n=8-10/arm) were infected for 6 weeks every other day. For infection, […]. of bacteria solution were applied topically to the buccal surface of the maxillae. For preparation of the bacteria, P. gingivalis W83 (ATCC, Rockville, Md.) was streaked on Tryptic Soy Broth (TSB) agar plates (5% sheep blood, supplemented with 0.5 mg/mL L-cysteine, 5 μg/mL hemin, and 0.5 μg/mL vitamin K) and grown under anaerobic conditions at 37° C. for 5-7 days. Samples were then inoculated in TSB with hemin, vitamin K and L-cysteine (TSB-HKC) until mid-log phase (OD600=0.5-0.7). Bacteria were washed in PBS and prepared at final concentration of 1×10^10 cells/mL in PBS+2% methylcellulose (CMC).
Vehicle-treated animals received PBS only. At 5 weeks, a subgroup of animals (n=16) were euthanized to gather baseline measurements before the start of treatment. After 10 weeks, mice were euthanized and the brain, serum, and maxillary tissues were harvested and frozen in liquid nitrogen.
Bone loss in the maxillae was measured ex vivo blinded using OsiriX MD software (PixmeoSARL, Bernex, Switzerland). […] The distance between the cementoenamel junction (CEJ) and the alveolar bone crest (ABC) was measured from the CEJ to a reference line on the ABC which was placed perpendicular to the superficial root one each side of the second molar. […]

## NCCCC[C@H](NC(=O)C1CCCC1)C(=O)COc1c(F)ccc(F)c1F [Compound 1, (S)—N-(7-amino-2-oxo-1-(2,3,6-trifluorophenoxy)heptan-3-yl)cyclopentanecarboxamide]
Arginine gingipain, Rgp
  inhibition of arginine gingipain, Rgp: does not inhibit
Cathepsin B
  IC50: 380 nM
Cathepsin S
  IC50: > 10000 nM
Cathepsin V
  IC50: > 10000 nM
P. gingivalis W83; 3 mg/kg oral b.i.d.
  alveolar bone loss: trended to improvement but did not result in significant improvement
P. gingivalis W83; 10 mg/kg oral b.i.d.
  alveolar bone loss: improved
P. gingivalis W83; 30 mg/kg oral b.i.d.
  alveolar bone loss: improved
